Laboratory results reported in patent US11439603B2, “Compositions for ameliorating, preventing or treating somnipathy including phloroglucinol as active ingredient and compositions for suppressing intolerance to or alleviating side effects of agonist at benzodiazepine binding site of GABA-A receptor including phloroglucinol as active ingredient” (KOREA FOOD RESEARCH INSTITUTE, priority 2017, dated 2022).

Experiments:
C57BL/6N mice [1] = assay: Sleep architecture analysis (EEG/EMG) after single administration; format: in vivo; conditions: for NREM sleep / REM sleep: EEG recorded for 2 h after oral administration
Protocol: C57BL/6N mice (28-30 g, 12-week old male) were received from Koatech Co. Ltd. (Pyeongtaek, Gyeonggi-do, Korea) and acclimated to the vivarium for a period of one week before testing was conducted. The animals were housed at a temperature of 23±1° C., a humidity of 55±5%, and a light intensity of 3000 Lux under a 12 h light-dark cycle (light on from 07:00 to 19:00). The animals had ad libitum access to food and water. All animals were maintained in accordance with the guidelines for the Institutional Animal Care and Use Committee of the Korea Food Research Institute (KFRI-IACUC).
C57BL/6N mice were acclimated for a period of one week and received electrode implantation for electroencephalogram (EEG) and electromyogram (EMG) recordings. Each mouse was anesthetized with pentobarbital (50 mg/kg, i.p.) and its head was fixed in a stereotaxic instrument. After the subcutaneous connective tissue of the head was incised, an EEG/EMG headmount (Pinnacle Technology Inc., Lawrence, Kans., USA) was implanted for EEG and EMG recordings, fixed with dental cement, and closed with sutures. The surgical site was sterilized and an antibiotic was administered for 3 days to prevent possible inflammation after surgery. The animal was allowed to recover for 7 days. For adaptation to the recording conditions, 0.5% CMC-saline solution used as a control was administered orally from 4 days before measurement. Thereafter, the recording instrument was connected to induce acclimation of the animal to this experimental procedure.
After oral administration of a sample, the animal was stabilized for 5 min. Then, EEG and EMG were recorded using PAL-8200 series (Pinnacle Technology Inc., Lawrence, Kans., USA) for 24 h from 17:00. The sampling rate for EEG and EMG recordings was set to 200 Hz (epoch time: 10 s). The filtering range was set to 0.1-25 Hz for EEG data recording and 10-100 Hz for EMG data recording.
Sleep architecture analysis was conducted according to the fast Fourier transform (FFT) algorithm using the SleepSign program (Ver. 3.0, Kissei Comtec Inc., Matsumoto, Nagono, Japan).
The results were divided into three stages: Wake, REMS (rapid eye movement sleep, theta band: 6-10 Hz) and NREMS (non-rapid eye movement sleep, delta band: 0.5-4 Hz). Sleep latency was defined as the time required for NREM sleep with 10 s epoch to occur consecutively at least 12 times (Blanco-Centurion et al., 2006). The values in the 0.5-4 Hz range were averaged and the delta power during NREM sleep was expressed in percent relative to the control.
All animal experimental data were expressed as mean±standard deviation.

[2] = administered alone at doses of 25 to 50 mg/kg; cited from earlier work
[3] = test system: GABAA-benzodiazepine receptor; assay: Mechanism of action for sleep enhancement: flumazenil given 15 min before oral sample, EEG/EMG; format: in vivo, mice
Protocol: To investigate the mechanism of action for sleep enhancement, flumazenil, an antagonist of the GABAA-benzodiazepine receptor, was administered 15 min before oral administration of phloroglucinol and EEG and EMG were recorded by the same method as described in Experimental Example 1.
In this example, zolpidem was used as a positive control.

C57BL/6N mice [4] = assay: Sleep architecture (EEG) during long-term administration for 21 days and 2-day withdrawal; format: in vivo
Protocol: Experimental animals were prepared and their sleep architecture was analyzed in the same manner as in Experimental Example 1. As in the single administration in Experimental Example 1, the mice were allowed to recover for 7 days after surgery and acclimated for 4 days. Thereafter, baselines (BL) were measured on day 0 after acclimation and a sample was administered orally to each animal for 21 days. EEGs were recorded on days 1, 7, 14, and 21. EEGs were recorded and analyzed during the subsequent 2-day withdrawal. FIG. 8 is a flow diagram of an experiment for sleep architecture analysis during long-term administration.
EEGs were recorded for the mice on days 0, 1, 7, 14, and 21 during long-term administration of each sample for 3 weeks. The recorded EEGs were analyzed.

GABAA-benzodiazepine = conditions: compared with other phlorotannins and diazepams; cited from earlier work
[5] = oral once daily for 3 weeks, phloroglucinol 100 mg/kg, zolpidem 5 mg/kg
[6] = oral once daily for 3 weeks, phloroglucinol 100 mg/kg, zolpidem 5 mg/kg, or both

CN1C(=O)CN=C(c2ccccc2)c2cc(Cl)ccc21 [diazepam]
delta activity in the range of 0.5-4 Hz (C57BL/6N mice [1]; 5 mg/kg diazepam (data not shown)): significantly reduced

Oc1cc(O)cc(O)c1 [phloroglucinol]
sleep duration [2]: increasing sleep duration | sleep latency [2]: effective in reducing sleep latency | amount of NREM sleep ([3]; treated with flumazenil 15 min before oral administration): level similar to that of a negative control | NREM sleep ([3]; untreated with flumazenil): increased NREM sleep | NREM sleep (C57BL/6N mice [1]): increased NREM sleep in a concentration-dependent manner | REM sleep (C57BL/6N mice [1]): without affecting REM sleep | delta activity during NREM sleep (C57BL/6N mice [1]; oral, up to 150 mg/kg alone): no significant change | time after administration for which NREM sleep was significantly increased (C57BL/6N mice [1]; single administration 150 mg/kg): 2 h | sleep latency compared to negative control (vehicle) (C57BL/6N mice [1]; single oral administration, all concentrations (50, 100 and 150 mg/kg)): significantly reduced | NREM sleep duration compared to baseline (BL) (C57BL/6N mice [4]; [5]): increase | intolerance on long-term administration (C57BL/6N mice [4]; [5]): no intolerance | sleep latency compared to baseline (BL) (C57BL/6N mice [4]; [5]): significant reduction | persistence of NREM sleep-enhancing effect from day 1 to day 21 (C57BL/6N mice [4]; phloroglucinol 100 mg/kg alone or with zolpidem 5 mg/kg, once daily): lasted similarly from day 1 to day 21 | IC50 (GABAA-benzodiazepine): much lower | binding affinity (Ki) (GABAA-benzodiazepine): much lower

Cc1ccc(-c2nc3ccc(C)cn3c2CC(=O)N(C)C)cc1 [zolpidem, N,N,6-trimethyl-2-p-tolylimidazo[1,2-a]pyridine-3-acetamide L-(+)-tartrate (2:1)]
sleep-enhancing effect with flumazenil ([3]; flumazenil administered before sample, positive control): completely blocked | residual sedation (C57BL/6N mice [1]; 5 mg/kg): slight residual sedation | time after administration for which NREM sleep was significantly increased (C57BL/6N mice [1]; 5 mg/kg): 3 h | time after administration for which vigilance was significantly reduced (C57BL/6N mice [1]; 5 mg/kg): up to 9 h | NREM sleep at 14 h after administration (residual sedative effect) (C57BL/6N mice [1]; 10 mg/kg alone): significantly increased | time after administration for which the sleep-enhancing effect lasted (C57BL/6N mice [1]; 10 mg/kg alone): 4 h | increase of NREM sleep duration (C57BL/6N mice [1]; 10 mg/kg, 2 h after oral administration, p<0.01): 74.6% | NREM sleep (C57BL/6N mice [1]): increased NREM sleep in a concentration-dependent manner | REM sleep (C57BL/6N mice [1]): without affecting REM sleep | delta activity in the range of 0.5-4 Hz during NREM sleep (C57BL/6N mice [1]; oral 5 mg/kg, p<0.01): significantly reduce | delta activity in the range of 0.5-4 Hz during NREM sleep (C57BL/6N mice [1]; oral 10 mg/kg, p<0.01): significantly reduce | reduction of sleep latency (C57BL/6N mice [1]; single administration of zolpidem 10 mg/kg): ~44 min | sleep latency compared to negative control (vehicle) (C57BL/6N mice [1]; single administration, 5 and 10 mg/kg): significantly reduced | time for which NREM sleep duration was significantly increased compared to baseline (C57BL/6N mice [4]; day 1, zolpidem 5 mg/kg alone or with phloroglucinol 100 mg/kg): 3 h | time for which NREM sleep duration was significantly increased compared to baseline (C57BL/6N mice [4]; day 21, zolpidem 5 mg/kg alone): 1 h | delta activity compared to baseline (C57BL/6N mice [4]; days 1, 7, and 14 of long-term administration, zolpidem 5 mg/kg, p<0.01): significant reductions | NREM sleep duration compared to baseline (BL) (C57BL/6N mice [4]; [5]): significant increase | intolerance on long-term administration (C57BL/6N mice [4]; [5]): demonstrating intolerance | sleep latency compared to baseline (BL) (C57BL/6N mice [4]; [5]): significant reduction | NREM sleep duration with increasing administration period (third week / day 21 versus first day) (C57BL/6N mice [4]; [6]): significant difference | sleep latency with increasing administration period (third week / days 7, 14, 21 versus first day) (C57BL/6N mice [4]; [6]): significant difference
